In publication PMC3794980, “Identification of Conserved and HLA Promiscuous DENV3 T-Cell Epitopes” (PLoS Neglected Tropical Diseases, 2013) one finds IC50 data, which are given here for 18 molecules.

Where no end group is shown, it is not given here.

Targets include DRB3*0101 (Homo sapiens, UniProt P01903+P79483); DRB4*0101 (Homo sapiens, UniProt P01903+P13762, G164S); DRB5*0101 (Homo sapiens, UniProt P01903+Q30154).
Experiment in all cases: biochemical
Common to all, as to type: binding

For the molecule `CC[C@H](C)[C@H](NC(=O)[C@H](CC(=O)O)NC(=O)[C@H](CCSC)NC(=O)[C@@H](N)C(C)C)C(=O)N[C@H](C(=O)N[C@@H](CO)C(=O)N[C@@H](CCCNC(=N)N)C(=O)N[C@@H](CCCCN)C(=O)N[C@@H](CC(=O)O)C(=O)N[C@@H](CCC(N)=O)C(=O)N[C@@H](CCCNC(=N)N)C(=O)NCC(=O)N[C@@H](CO)C(=O)NCC(=O)N[C@@H](CCC(N)=O)C(=O)N[C@H](C(=O)NCC(=O)O)C(C)C)[C@@H](C)CC` [NS5 588-604], the half-maximal inhibitory concentration (IC50) against DRB3*0101 was determined as 4.26 µM; against DRB4*0101, 6.24 µM; on DRB5*0101 it was 17100 nM.

`CC[C@H](C)[C@H](N)C(=O)N[C@@H](CC(=O)O)C(=O)N[C@@H](CC(=O)O)C(=O)N[C@@H](CCCNC(=N)N)C(=O)N[C@@H](Cc1ccccc1)C(=O)N[C@@H](C)C(=O)N[C@@H](CC(N)=O)C(=O)N[C@@H](C)C(=O)N[C@@H](CC(C)C)C(=O)N[C@@H](CC(C)C)C(=O)N[C@@H](C)C(=O)N[C@@H](CC(C)C)C(=O)N[C@@H](CC(N)=O)C(=O)N[C@@H](CC(=O)O)C(=O)N[C@@H](CCSC)C(=O)NCC(=O)N[C@@H](CCCCN)C(=O)O` [NS5 670-686]: the IC50 on DRB3*0101 was found to be 7.5 µM; on DRB4*0101, 0.971 µM; at DRB5*0101, 478 nM.

`CC[C@H](C)[C@H](NC(=O)[C@H](C)NC(=O)[C@@H](N)CCSC)C(=O)N[C@@H](CO)C(=O)NCC(=O)N[C@@H](CC(=O)O)C(=O)N[C@@H](CC(=O)O)C(=O)N[C@@H](CS)C(=O)N[C@H](C(=O)N[C@H](C(=O)N[C@@H](CCCCN)C(=O)N1CCC[C@H]1C(=O)N[C@H](C(=O)N[C@@H](CC(=O)O)C(=O)N[C@@H](CC(=O)O)C(=O)N[C@@H](CCCNC(=N)N)C(=O)N[C@@H](Cc1ccccc1)C(=O)O)[C@@H](C)CC)C(C)C)C(C)C` [NS5 658-674]: the IC50 against DRB3*0101 is 1.93 µM; against DRB4*0101, 19.4 µM; against DRB5*0101 it was 1540 nM.

For `CC(C)C[C@H](N)C(=O)N[C@H](C(=O)N[C@@H](Cc1ccc(O)cc1)C(=O)N[C@@H](CCC(N)=O)C(=O)N[C@@H](CC(N)=O)C(=O)N[C@@H](CCCCN)C(=O)N[C@H](C(=O)N[C@H](C(=O)N[C@@H](CCCCN)C(=O)N[C@H](C(=O)N[C@@H](CCC(N)=O)C(=O)N[C@@H](CCCNC(=N)N)C(=O)N1CCC[C@H]1C(=O)N[C@H](C(=O)N1CCC[C@H]1C(=O)N[C@@H](CCCCN)C(=O)NCC(=O)O)[C@@H](C)O)C(C)C)C(C)C)C(C)C)[C@@H](C)O` [NS5 570-586], the IC50 against DRB3*0101 came out at 4.57 µM; at DRB4*0101 it was 0.013 µM; on DRB5*0101, 28 nM.

For `CC[C@H](C)[C@H](NC(=O)[C@H](CC(C)C)NC(=O)[C@H](CCCCN)NC(=O)CNC(=O)[C@H](CO)NC(=O)[C@@H](NC(=O)[C@@H](NC(=O)[C@@H](NC(=O)[C@@H](NC(=O)[C@H](CCCNC(=N)N)NC(=O)[C@H](CC(C)C)NC(=O)[C@@H](N)CO)[C@@H](C)O)[C@@H](C)O)[C@@H](C)O)C(C)C)C(=O)N[C@@H](Cc1c[nH]cn1)C(=O)N[C@@H](CCC(=O)O)C(=O)N[C@@H](Cc1c[nH]c2ccccc12)C(=O)O` [NS1 297-311], the IC50 at DRB3*0101 amounted to 12.4 µM; on DRB4*0101 it was 5.31 µM; against DRB5*0101, 2110 nM.

Regarding `CC[C@H](C)[C@H](NC(=O)[C@@H](NC(=O)[C@H](CC(=O)O)NC(=O)[C@H](CCSC)NC(=O)[C@@H](NC(=O)[C@@H](NC(=O)CNC(=O)[C@H](CCCCN)NC(=O)[C@@H]1CCCN1C(=O)[C@@H](NC(=O)[C@@H]1CCCN1C(=O)[C@H](CCCNC(=N)N)NC(=O)[C@H](CCC(N)=O)NC(=O)[C@@H](NC(=O)[C@H](CCCCN)NC(=O)[C@@H](NC(=O)[C@@H](N)C(C)C)C(C)C)C(C)C)[C@@H](C)O)[C@@H](C)O)C(C)C)[C@@H](C)CC)C(=O)O` [NS5 576-592], the IC50 at DRB3*0101 was 2.91 µM; against DRB4*0101 it was 0.108 µM; against DRB5*0101, 84 nM.

As for `CC(C)C[C@H](NC(=O)[C@H](Cc1ccccc1)NC(=O)CN)C(=O)N[C@@H](CC(N)=O)C(=O)N[C@@H](CCC(=O)O)C(=O)N[C@@H](CC(=O)O)C(=O)N[C@@H](Cc1c[nH]cn1)C(=O)N[C@@H](Cc1c[nH]c2ccccc12)C(=O)N[C@@H](Cc1ccccc1)C(=O)N[C@@H](CO)C(=O)N[C@@H](CCCNC(=N)N)C(=O)N[C@@H](CCC(=O)O)C(=O)N[C@@H](CC(N)=O)C(=O)N[C@@H](CO)C(=O)N[C@@H](Cc1ccc(O)cc1)C(=O)N[C@@H](CO)C(=O)NCC(=O)O` [NS5 489-505], the IC50 was determined as 0.387 µM on DRB3*0101, 13.9 µM on DRB4*0101 and 936 nM against DRB5*0101.

As to TRGAVLTYNGKRLEP [NS3 53-67], the IC50 was found to be 3.29 µM on DRB3*0101, 11.5 µM against DRB4*0101 and 329 nM on DRB5*0101.

Turning to `CC[C@H](C)[C@H](NC(=O)[C@H](C)NC(=O)CNC(=O)[C@@H](NC(=O)[C@H](CCC(=O)O)NC(=O)CNC(=O)[C@@H](NC(=O)[C@@H](NC(=O)[C@@H](NC(=O)[C@H](CCC(N)=O)NC(=O)[C@H](Cc1ccccc1)NC(=O)[C@@H](NC(=O)CNC(=O)[C@@H]1CCCN1)[C@@H](C)O)[C@@H](C)O)[C@@H](C)O)[C@@H](C)O)[C@@H](C)CC)C(=O)N[C@@H](C)C(=O)O` [NS3 113-127], the figures for the concentration for half-maximal inhibition (IC50) against DRB3*0101, on DRB4*0101 and at DRB5*0101 were 3.07 µM, 1.84 µM and 2100 nM, respectively.

For the molecule `CC[C@H](C)[C@H](NC(=O)[C@@H](NC(=O)[C@H](CCCCN)NC(=O)[C@H](CCCCN)NC(=O)CNC(=O)[C@H](CC(N)=O)NC(=O)[C@H](CCCCN)NC(=O)[C@H](CCCNC(=N)N)NC(=O)[C@H](CC(C)C)NC(=O)[C@H](CS)NC(=O)[C@H](CC(N)=O)NC(=O)[C@H](C)N)C(C)C)C(=O)N[C@@H](CCC(N)=O)C(=O)N[C@@H](CC(C)C)C(=O)N[C@@H](CO)C(=O)O` [NS3 373-387], the IC50 on DRB3*0101 was 3.43 µM; against DRB4*0101, 1.63 µM; at DRB5*0101, 3540 nM.

As for `CC(C)C[C@H](NC(=O)[C@H](CCCNC(=N)N)NC(=O)[C@H](CCCCN)NC(=O)CNC(=O)[C@@H](N)CC(N)=O)C(=O)N[C@@H](CCC(=O)O)C(=O)N1CCC[C@H]1C(=O)N[C@@H](CC(N)=O)C(=O)N[C@@H](Cc1c[nH]c2ccccc12)C(=O)N[C@@H](C)C(=O)N[C@@H](CO)C(=O)N[C@H](C(=O)N[C@@H](CCCCN)C(=O)N[C@@H](CCCCN)C(=O)N[C@@H](CC(=O)O)C(=O)O)C(C)C` [NS3 61-75], the IC50 at DRB3*0101 turned out to be 1.2 µM; against DRB4*0101, 7.03 µM; on DRB5*0101, 143 nM.

For `CC(C)C[C@H](NC(=O)[C@H](CCCCN)NC(=O)CNC(=O)[C@H](CC(C)C)NC(=O)[C@@H](N)Cc1c[nH]cn1)C(=O)N[C@@H](CCC(=O)O)C(=O)N[C@@H](CC(C)C)C(=O)N[C@@H](CC(=O)O)C(=O)N[C@@H](Cc1ccccc1)C(=O)N[C@@H](CC(N)=O)C(=O)N[C@@H](Cc1ccc(O)cc1)C(=O)N[C@@H](CS)C(=O)N[C@@H](CCC(=O)O)C(=O)NCC(=O)N[C@H](C(=O)O)[C@@H](C)O` [NS1 269-283], the half-maximal inhibitory concentration (IC50) against DRB3*0101 turned out to be 0.071 µM; against DRB4*0101, 0.085 µM; against DRB5*0101, 9470 nM.

With `CC[C@H](C)[C@H](NC(=O)[C@@H](N)CCCCN)C(=O)N[C@H](C(=O)N[C@@H](CCC(N)=O)C(=O)N[C@@H](Cc1c[nH]c2ccccc12)C(=O)N[C@@H](CC(C)C)C(=O)N[C@@H](CCC(=O)O)C(=O)N[C@H](C(=O)N[C@@H](CCCCN)C(=O)NCC(=O)N[C@H](C(=O)N[C@@H](CCC(=O)O)C(=O)N[C@@H](CCCNC(=N)N)C(=O)N[C@@H](CC(C)C)C(=O)N[C@@H](CCCCN)C(=O)N[C@@H](CCCNC(=N)N)C(=O)N[C@@H](CCSC)C(=O)O)C(C)C)[C@@H](C)O)[C@@H](C)O` [NS5 642-658], the half-inhibitory concentration (IC50) on DRB3*0101 stood at 12.2 µM; at DRB4*0101, 15.3 µM; at DRB5*0101, 5.1 nM.

As to VTFKNAHAKKPEVVV [Envelope 236-250], the half-maximal inhibitory concentration (IC50) against DRB3*0101 was 18.2 µM; at DRB4*0101 it was 6.76 µM; on DRB5*0101, 30 nM.

As for `CSCC[C@H](NC(=O)[C@H](CCSC)NC(=O)[C@H](CC(N)=O)NC(=O)[C@H](Cc1ccc(O)cc1)NC(=O)[C@@H](NC(=O)[C@H](CS)NC(=O)[C@H](CO)NC(=O)CN)C(C)C)C(=O)NCC(=O)N[C@@H](CCCCN)C(=O)N[C@@H](CCCNC(=N)N)C(=O)N[C@@H](CCC(=O)O)C(=O)N[C@@H](CCCCN)C(=O)N[C@@H](CCCCN)C(=O)N[C@@H](CC(C)C)C(=O)NCC(=O)N[C@@H](CCC(=O)O)C(=O)O` [NS5 447-463], the IC50 against DRB3*0101 worked out at 1.76 µM; on DRB4*0101, 8.47 µM; against DRB5*0101, 25 nM.

Consider `CC[C@H](C)[C@H](NC(=O)[C@H](CS)NC(=O)[C@H](Cc1ccccc1)NC(=O)[C@H](CCC(N)=O)NC(=O)[C@@H](N)CC(N)=O)C(=O)N[C@@H](CCCCN)C(=O)N[C@H](C(=O)N[C@@H](CC(C)C)C(=O)N[C@@H](CC(N)=O)C(=O)N1CCC[C@H]1C(=O)N[C@@H](Cc1ccc(O)cc1)C(=O)N[C@@H](CCSC)C(=O)N1CCC[C@H]1C(=O)N[C@H](C(=O)N[C@H](C(=O)N[C@H](C(=O)N[C@@H](CCC(=O)O)C(=O)O)[C@@H](C)CC)C(C)C)[C@@H](C)O)C(C)C` [NS5 175-191], for which the IC50 on DRB3*0101 is 1.34 µM; on DRB4*0101, 6.64 µM; against DRB5*0101 it was 722 nM.

With `CC[C@H](C)[C@H](NC(=O)[C@H](CCCNC(=N)N)NC(=O)[C@H](CCCCN)NC(=O)[C@@H](NC(=O)[C@H](CCCNC(=N)N)NC(=O)[C@H](CCC(=O)O)NC(=O)CNC(=O)[C@@H](NC(=O)[C@@H](NC(=O)[C@H](CC(=O)O)NC(=O)[C@H](CCSC)NC(=O)[C@H](CC(N)=O)NC(=O)[C@@H]1CCCN1C(=O)[C@@H](NC(=O)[C@H](CCC(=O)O)NC(=O)[C@@H]1CCCN1)[C@@H](C)O)C(C)C)[C@@H](C)CC)[C@@H](C)CC)C(=O)N[C@@H](CCCCN)C(=O)O` [NS5 268-284], the IC50 came to 1.39 µM against DRB3*0101, 0.869 µM on DRB4*0101 and 2830 nM against DRB5*0101.

LKKEVSETQHGTILV [Envelope 306-320]: the IC50 at DRB3*0101 was 12.1 µM; at DRB4*0101, 7.86 µM; at DRB5*0101, 12600 nM.

For orientation: IC50 means the concentration that gives 50% inhibition. Read a high IC50 as a need for much substance.
